How the values were obtained:
[1] = molecular target: T1, rePON1 (PON1, paraoxonase 1) (Homo sapiens, UniProt P27169); assay: Prevention of inhibition of PON1 activity by oxidized linolenic acid (TBBL substrate); type: biochemical
T1 construct: purchased Thermo Corp. RP-75678
Summary of the method: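 Recombinant PON1 preincubated 30 min at room temperature with compound (30 μM) in 50 mM Tris-HCl/1 mM CaCl2, then exposed to oxidized linolenic acid for 2 h. Activity read with TBBL and DTNB at 420 nm, 37 °C, every 2 min for 1 h, expressed relative to uninhibited PON1.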

PON2 mRNA = assay: Relative expression level of PON2 mRNA in liver of DIO mice (real-time PCR); type: in vivo, C57BL/6J DIO mice; settings: 100 mg/kg orally once daily for 6 weeks, 60% fat diet, FIG. 1a
Method: 14-Week-old C57BL/6J DIO (Diet Induced Obesity) mice (The Jackson Laboratory, USA) were purchased. The normal control group was fed a 10% fat diet for 3 weeks, and the DIO control group was fed a 60% fat diet for 3 weeks. In addition, the Formula III-1 compound-administered group was fed a 60% fat diet for 3 weeks, and then 100 mg/kg of the compound of Formula III-1 was orally administered thereto once daily for 6 weeks.
The mice of the normal control group, the DIO control group and the Formula III-1 compound-administered group were euthanized, and the liver tissues were extracted therefrom, washed with a PBS solution containing PIC (protease inhibitor cocktail), sectioned to a size of 0.2 to 0.5 g, and stored at −196° C. until the experiment.
The following experiment was conducted using the liver tissue sections from the normal control group, the DIO control group and the Formula III-1 compound-administered group.
The relative expression level of PON2 mRNA was analyzed using real-time PCR. Specifically, trizol (Invitrogen, Carlsbad, Calif., USA) was added to the liver tissue which was then minced using a homogenizer, and total RNA was extracted therefrom. […]

BV2 cells = assay: Transcription of NF-κB protein (p65, p50) into nucleus after LPS (Western blot); type: cell-based; settings: 3 h pretreatment (Table 3 amounts), LPS 1 μg/ml 1 h
Summary of the method: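 Cells (5×10^5/well) cultured in DMEM with 10% FBS at 37° C, 5% CO2, pretreated with compound, then stimulated with 1 μg/ml LPS for 1 hour. Nuclear levels of p65 and p50 measured by Western blot.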

T1 sequence (P27169 whole entry): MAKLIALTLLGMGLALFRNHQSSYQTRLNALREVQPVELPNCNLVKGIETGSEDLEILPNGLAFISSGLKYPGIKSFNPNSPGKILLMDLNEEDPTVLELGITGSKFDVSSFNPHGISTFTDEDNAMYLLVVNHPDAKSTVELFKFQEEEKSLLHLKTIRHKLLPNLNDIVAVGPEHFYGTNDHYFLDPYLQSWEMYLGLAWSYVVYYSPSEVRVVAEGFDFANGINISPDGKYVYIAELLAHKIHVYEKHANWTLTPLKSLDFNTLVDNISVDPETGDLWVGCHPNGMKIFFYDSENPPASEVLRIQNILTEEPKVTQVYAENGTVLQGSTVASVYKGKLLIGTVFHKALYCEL

CCOc1ccc(C2COc3c(ccc4c3CCC(C)(C)O4)C2)c(O)c1 (stereo not drawn) [Formula III-1, 2-(8,8-dimethyl-2,3,4,8,9,10-hexahydropyrano[2,3-f]chromen-3-yl)-5-ethoxyphenol]
activity at 30 µM ([1]; 30 μM compound with rePON1 30 min, then oxidized linolenic acid 2 h, TBBL substrate, normal control 100, negative control 73.64): 89%
extent to which inhibition of rePON1 activity was prevented, compared with glabridin ([1]; compound 30 μM vs glabridin 30 μM, result in words): greater
inhibition of rePON1 activity by oxidized linolenic acid ([1]; compound 30 μM, result in words): prevented
expression level of PON2 mRNA compared with normal control group (PON2 mRNA): higher
level of transcription of NF-κB protein into the nucleus, p50 (BV2 cells): concentration-dependently decreased
level of transcription of NF-κB protein into the nucleus, p65 (BV2 cells): concentration-dependently decreased

Reference: patent US20220257557A1, “PHARMACEUTICAL COMPOSITION FOR PREVENTING OR TREATING NEUROLOGICAL DISEASES” (GLACEUM INC., priority 2019, published 2022)
